Reference: patent publication US20230357266A1, “PHOTOA[…] AND USES THEREOF” (priority 2022, published 2023)

What was measured:
acetylated BSA = molecular target: T1, acetylated BSA (Bos taurus, UniProt P02769); assay: Light-induced covalent labeling of model protein (slot blot, anti-biotin detection), with or without iridium catalyst Ir-9049; assay type: biochemical; conditions: 50 μM probe, 0.8 μM acetylated BSA, no catalyst, 20 minutes at 365 nm or 455 nm
T1 construct: purchased Promega
Description: The capacity of these vinyl-extended aryl-azide-based photoreactive groups to undergo activation by either UV or visible 455 nm light in the presence or absence of a catalyst for subsequent covalent crosslinking with neighboring proteins was further evaluated through labeling efficiency of a model protein (FIGS. 4 and 5). […] Plates remained in the dark (control) or irradiated using Efficiency Aggregators biophotoreactor for 20 minutes at either 365 nm (100% UV=^˜80 W) or 455 nm (100%=^˜80 W or 2% 2 W). To evaluate subsequent covalent labeling efficiencies, reactions were subjected to Zeba column clean-up (ThermoFisher) to remove non-crosslinked vinyl-extended-aryl-azide-biotin probes and then spotted on nitrocellulose membranes using a slot blot apparatus. Membranes were then blocked with 5% BSA (Promega) in TBST for 1 hour at room temperature and subsequently incubated overnight at 4° C. with anti-biotin antibody (Invitrogen) in TBST. The next day membranes were washed 3 times with TBST and then incubated for an hour with a secondary anti-goat-HRP-antibody (Jackson laboratories). Following three washes in TBST, membranes were treated with ECL substrate (Promega) and scanned on the chemiluminescence channel to detect BSA labeled with biotin. […]

[1] = comparator value for simple phenyl-azide; cited from earlier work

T1 sequence (P02769 25-607): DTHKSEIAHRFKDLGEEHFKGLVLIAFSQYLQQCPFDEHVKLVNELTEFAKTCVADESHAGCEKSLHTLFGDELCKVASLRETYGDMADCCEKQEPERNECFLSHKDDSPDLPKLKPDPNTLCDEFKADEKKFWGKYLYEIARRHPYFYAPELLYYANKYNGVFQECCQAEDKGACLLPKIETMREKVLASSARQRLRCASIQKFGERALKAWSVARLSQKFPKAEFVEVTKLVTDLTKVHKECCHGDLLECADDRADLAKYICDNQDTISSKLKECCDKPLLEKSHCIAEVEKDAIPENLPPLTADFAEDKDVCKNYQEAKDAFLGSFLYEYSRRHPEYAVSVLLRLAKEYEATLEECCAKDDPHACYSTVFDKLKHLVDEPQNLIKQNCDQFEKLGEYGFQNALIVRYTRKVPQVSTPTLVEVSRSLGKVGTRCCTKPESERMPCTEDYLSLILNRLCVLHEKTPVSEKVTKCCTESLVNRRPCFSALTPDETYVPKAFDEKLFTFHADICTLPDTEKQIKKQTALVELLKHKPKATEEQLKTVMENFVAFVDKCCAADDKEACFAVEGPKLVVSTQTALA

| SMILES | UV versus 455 nm activation efficiencies (quantitated band volumes) (acetylated BSA) | λmax [1] |
| --- | --- | --- |
| C/C(=C\C(=O)NCCOCCOCCOCCOCCNC(=O)CCCC[C@@H]1SC[C@@H]2NC(=O)N[C@@H]21)c1ccc2cc(N=[N+]=[N-])ccc2c1 [Compound 9582] | greater 455 nm activation efficiencies |  |
| C/C(=C\C(=O)NCCOCCOCCOCCOCCNC(=O)CCCC[C@@H]1SC[C@@H]2NC(=O)N[C@@H]21)c1ccc2cc(N=[N+]=[N-])c(C#N)cc2c1 [Compound 9616] | greater 455 nm activation efficiencies |  |
| [N-]=[N+]=Nc1ccccc1 [phenyl-azide] |  | ~260 nm |
